# Test results from PubChem BioAssay (NCI).
#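 Briefly, cells in 96-well plates were exposed to five compound concentrations for 48 h, and endpoints were estimated by linear interpolation. GI50 marks 50% less growth. TGI is the concentration that stops growth completely.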
# How the values were obtained:
# Test in all cases: inhibition of tumour cell growth, NCI panel, 48 h
# HT29 colon = tested on: HT29 colon
# MOLT-4 leukemia = tested on: MOLT-4 leukemia
# HOP-92 NSCLC = tested on: HOP-92 NSCLC
# SF-295 CNS = tested on: SF-295 CNS
# M14 melanoma = tested on: M14 melanoma
# KM12 colon = tested on: KM12 colon
# A498 renal = tested on: A498 renal
# TK-10 renal = tested on: TK-10 renal
# MDA-MB-231 breast = tested on: MDA-MB-231 breast
# NCI/ADR-RES ovarian = tested on: NCI/ADR-RES ovarian
# NCI-H460 lung = tested on: NCI-H460 lung
# PC-3 prostate = tested on: PC-3 prostate
# MDA-MB-435 = tested on: MDA-MB-435
# SW-620 colon = tested on: SW-620 colon
# ACHN renal = tested on: ACHN renal
# EKVX NSCLC = tested on: EKVX NSCLC
# LOX IMVI melanoma = tested on: LOX IMVI melanoma
# OVCAR-3 ovarian = tested on: OVCAR-3 ovarian
# SNB-75 CNS = tested on: SNB-75 CNS
# 786-0 renal = tested on: 786-0 renal
# UACC-62 melanoma = tested on: UACC-62 melanoma
# SK-MEL-2 melanoma = tested on: SK-MEL-2 melanoma
# NCI-H522 lung = tested on: NCI-H522 lung
# CAKI-1 renal = tested on: CAKI-1 renal
# NCI-H23 lung = tested on: NCI-H23 lung
# OVCAR-5 ovarian = tested on: OVCAR-5 ovarian
# SK-MEL-5 melanoma = tested on: SK-MEL-5 melanoma
# RPMI-8226 leukemia = tested on: RPMI-8226 leukemia
# SK-MEL-28 melanoma = tested on: SK-MEL-28 melanoma
# HS 578T breast = tested on: HS 578T breast
# UACC-257 melanoma = tested on: UACC-257 melanoma
# MCF7 breast = tested on: MCF7 breast
# HCT-116 colon = tested on: HCT-116 colon
# HL-60(TB) leukemia = tested on: HL-60(TB) leukemia
# CCRF-CEM leukemia = tested on: CCRF-CEM leukemia
# HCT-15 colon = tested on: HCT-15 colon
# A549 NSCLC = tested on: A549 NSCLC
# IGROV1 ovarian = tested on: IGROV1 ovarian
# HOP-62 NSCLC = tested on: HOP-62 NSCLC
# OVCAR-4 ovarian = tested on: OVCAR-4 ovarian
# UO-31 renal = tested on: UO-31 renal
# SNB-19 CNS = tested on: SNB-19 CNS
# BT-549 breast = tested on: BT-549 breast
# OVCAR-8 ovarian = tested on: OVCAR-8 ovarian
# HCC-2998 colon = tested on: HCC-2998 colon
# SN12C renal = tested on: SN12C renal
# SF-539 CNS = tested on: SF-539 CNS
# RXF 393 renal = tested on: RXF 393 renal
# U251 CNS = tested on: U251 CNS
# SR leukemia = tested on: SR leukemia
# NCI-H226 lung = tested on: NCI-H226 lung
# COLO 205 colon = tested on: COLO 205 colon
# MDA-MB-468 breast = tested on: MDA-MB-468 breast
# K-562 leukemia = tested on: K-562 leukemia
# DU-145 prostate = tested on: DU-145 prostate
# SK-OV-3 ovarian = tested on: SK-OV-3 ovarian
# SF-268 CNS = tested on: SF-268 CNS
# MALME-3M melanoma = tested on: MALME-3M melanoma
smiles,measurement,setting,value
O=C(Nc1ccc(OCc2ccccc2)cc1)Nc1ccc(Cl)c(C(F)(F)F)c1,GI50,HT29 colon,2.25 µM
same,TGI,HT29 colon,10.2 µM
same,GI50,MOLT-4 leukemia,2.5 µM
same,TGI,MOLT-4 leukemia,18.1 µM
same,GI50,HOP-92 NSCLC,1.34 µM
same,TGI,HOP-92 NSCLC,3.83 µM
same,GI50,SF-295 CNS,1.76 µM
same,TGI,SF-295 CNS,5.44 µM
same,GI50,M14 melanoma,2.17 µM
same,TGI,M14 melanoma,> 64.3 µM
same,GI50,KM12 colon,2.1 µM
same,TGI,KM12 colon,12 µM
same,GI50,A498 renal,1.24 µM
same,TGI,A498 renal,3.9 µM
same,GI50,TK-10 renal,2.4 µM
same,TGI,TK-10 renal,30.1 µM
same,GI50,MDA-MB-231 breast,2.58 µM
same,TGI,MDA-MB-231 breast,11.1 µM
same,GI50,NCI/ADR-RES ovarian,1.94 µM
same,TGI,NCI/ADR-RES ovarian,7.23 µM
same,GI50,NCI-H460 lung,1.69 µM
same,TGI,NCI-H460 lung,5.61 µM
same,GI50,PC-3 prostate,1.78 µM
same,TGI,PC-3 prostate,7.16 µM
same,GI50,MDA-MB-435,1.98 µM
same,TGI,MDA-MB-435,27.2 µM
same,GI50,SW-620 colon,2 µM
same,TGI,SW-620 colon,11.2 µM
same,GI50,ACHN renal,1.76 µM
same,TGI,ACHN renal,4.93 µM
same,GI50,EKVX NSCLC,1.91 µM
same,TGI,EKVX NSCLC,7.09 µM
same,GI50,LOX IMVI melanoma,2.02 µM
same,TGI,LOX IMVI melanoma,7.36 µM
same,GI50,OVCAR-3 ovarian,1.61 µM
same,TGI,OVCAR-3 ovarian,4.96 µM
same,GI50,SNB-75 CNS,1.79 µM
same,TGI,SNB-75 CNS,6.18 µM
same,GI50,786-0 renal,2.09 µM
same,TGI,786-0 renal,9.89 µM
same,GI50,UACC-62 melanoma,1.82 µM
same,TGI,UACC-62 melanoma,11 µM
same,GI50,SK-MEL-2 melanoma,1.51 µM
same,TGI,SK-MEL-2 melanoma,3.65 µM
same,GI50,NCI-H522 lung,1.29 µM
same,TGI,NCI-H522 lung,3.52 µM
same,GI50,CAKI-1 renal,1.61 µM
same,TGI,CAKI-1 renal,5.46 µM
same,GI50,NCI-H23 lung,1.5 µM
same,TGI,NCI-H23 lung,4.39 µM
same,GI50,OVCAR-5 ovarian,3.25 µM
same,TGI,OVCAR-5 ovarian,58.3 µM
same,GI50,SK-MEL-5 melanoma,2.14 µM
same,TGI,SK-MEL-5 melanoma,8.25 µM
same,GI50,RPMI-8226 leukemia,1.69 µM
same,TGI,RPMI-8226 leukemia,7.56 µM
same,GI50,SK-MEL-28 melanoma,2.02 µM
same,TGI,SK-MEL-28 melanoma,> 64.3 µM
same,GI50,HS 578T breast,1.9 µM
same,TGI,HS 578T breast,15.7 µM
same,GI50,UACC-257 melanoma,1.4 µM
same,TGI,UACC-257 melanoma,5.67 µM
same,GI50,MCF7 breast,1.81 µM
same,TGI,MCF7 breast,6.77 µM
same,GI50,HCT-116 colon,1.9 µM
same,TGI,HCT-116 colon,11.5 µM
same,GI50,HL-60(TB) leukemia,1.54 µM
same,TGI,HL-60(TB) leukemia,7.77 µM
same,GI50,CCRF-CEM leukemia,1.69 µM
same,TGI,CCRF-CEM leukemia,5.2 µM
same,GI50,HCT-15 colon,2 µM
same,TGI,HCT-15 colon,14 µM
same,GI50,A549 NSCLC,1.83 µM
same,TGI,A549 NSCLC,15.2 µM
same,GI50,IGROV1 ovarian,2.57 µM
same,TGI,IGROV1 ovarian,> 64.3 µM
same,GI50,HOP-62 NSCLC,2.11 µM
same,TGI,HOP-62 NSCLC,41.1 µM
same,GI50,OVCAR-4 ovarian,2.37 µM
same,TGI,OVCAR-4 ovarian,27 µM
same,GI50,UO-31 renal,1.6 µM
same,TGI,UO-31 renal,5.31 µM
same,GI50,SNB-19 CNS,2.01 µM
same,TGI,SNB-19 CNS,14.1 µM
same,GI50,BT-549 breast,1.62 µM
same,TGI,BT-549 breast,4.68 µM
same,GI50,OVCAR-8 ovarian,2.1 µM
same,TGI,OVCAR-8 ovarian,41.3 µM
same,GI50,HCC-2998 colon,2.19 µM
same,TGI,HCC-2998 colon,29.8 µM
same,GI50,SN12C renal,1.75 µM
same,TGI,SN12C renal,6.71 µM
same,GI50,SF-539 CNS,2.34 µM
same,TGI,SF-539 CNS,9.41 µM
same,GI50,RXF 393 renal,4.53 µM
same,TGI,RXF 393 renal,41.2 µM
same,GI50,U251 CNS,2 µM
same,TGI,U251 CNS,6.59 µM
same,GI50,SR leukemia,2.19 µM
same,TGI,SR leukemia,13.2 µM
same,GI50,NCI-H226 lung,2 µM
same,TGI,NCI-H226 lung,7.03 µM
same,GI50,COLO 205 colon,1.67 µM
same,TGI,COLO 205 colon,4.25 µM
same,GI50,MDA-MB-468 breast,1.42 µM
same,TGI,MDA-MB-468 breast,4.12 µM
same,GI50,K-562 leukemia,2.34 µM
same,TGI,K-562 leukemia,> 64.3 µM
same,GI50,DU-145 prostate,2.28 µM
same,TGI,DU-145 prostate,21.1 µM
same,GI50,SK-OV-3 ovarian,1.81 µM
same,TGI,SK-OV-3 ovarian,4.99 µM
same,GI50,SF-268 CNS,2.28 µM
same,TGI,SF-268 CNS,> 64.3 µM
same,GI50,MALME-3M melanoma,1.54 µM
same,TGI,MALME-3M melanoma,4.36 µM
